{
  "source": "patent US20250031734A1",
  "about": "“COMPOSITIONS COMPRISING REBAUDIOSIDE J” (PepsiCo, Inc., priority 2016, published 2025)",
  "key": {"sensory panelists": {"tested_on": "sensory panelists", "test": "Sweetness modifier test, control vs sample with 30 ppm rebaudioside J (Example 6A)", "assay_type": "in vivo, human", "details": "sweetener plus 30 ppm rebaudioside J vs sweetener alone; about 5% SEV / 5 degrees Brix; pH 3.1 phosphate buffer; 13 to 16 panelists", "procedure": "The ability of rebaudioside J to modify the sweetness of natural and artificial sweeteners was assessed by comparing the sweetness of control samples without rebaudioside J to the sweetness of samples containing a mixture of the natural or artificial sweetener being tested and rebaudioside J. Control solutions were prepared by dissolving sucrose, HFCS, acesulfame-K, aspartame, and sucralose in pH 3.1 phosphate buffer. […] Sucrose and high fructose corn syrup (HFCS) were prepared as 5 degrees Brix solutions. This concentration was confirmed with an Anton Paar refractometer. […] Experimental samples were identical to control samples except for the addition of 30 ppm rebaudioside J. Tasting Protocol: The number of sensory panelists ranged from 13 to 16 for all sweeteners tested. Panelists were provided with a control sample prepared as described above. Panelists were also provided with an otherwise identical experimental sample prepared as described above. Panelists were asked to determine which sample tasted sweeter. […] Panelists wore nose clips and were blinded to the identity of the samples. Sensitivity index, also referred to as a “d' score” was calculated using known statistical methods."}, "[1]": {"tested_on": "trained sensory panelists", "test": "Dose response, trained sensory panel, 15-point line scale (Example 4A)", "assay_type": "in vivo, human", "details": "eight concentrations 11.13-625.61 ppm", "procedure": "Eight concentrations of rebaudioside J with one blank solution were evaluated (Table 1). Trained sensory panelists participated in an orientation session to familiarize themselves with sample set. Three evaluations (replicates) were obtained from each panelist for each evaluation, and a total of 30 judgments were obtained for each sample.\nThe panelists were served 10 mL portions of each sample. A 10-minute break was taken between samples. To determine sweetness intensity, the panelists were provided sucrose-containing sweetness intensity reference samples for intensities 5, 8, and 10. For each test sample, the panelists indicated the sweetness intensity of the test sample (labeled with a 3-digit number) on a 15-point line scale."}, "panelists": {"tested_on": "panelists", "test": "Benchtop sweetness ranking on 1-10 scale against rebaudioside A 400 ppm and sucrose 6.5% (Example 3)", "assay_type": "in vivo, human", "details": "400 ppm", "procedure": "Sample preparation: 4 degrees Brix HFCS control solution was prepared by adding 50.89 grams of 78.60 degrees Brix HFCS to 1000 g phosphoric acid base which was prepared by adding phosphoric acid dropwise into 1 L of AQUAFINA water until a pH of 3.1 was observed on a calibrated METTLER TOLEDO PH meter.\nFor some low soluble compounds, Branson 2800 Ultra Sonic Bath was used to dissolve the material. If any cloudiness persisted, the sample solution was passed through a paper filter. Solubility was confirmed by shining a laser pointer through the solution. If no diffraction was observed then it was assumed that the material was soluble.\nPreparation of Rebaudioside A for Sensory Evaluation: 400 ppm rebaudioside A in water (pH=7) was prepared by dissolving 40 mg of rebaudioside A with stirring in 100 mL of water at room temperature.\nPreparation of Sucrose for Sensory Evaluation: 6.5% sucrose in water (pH=7) was prepared by adding 6.5 g of sucrose and dissolving it in 93.5 g water (total 100 gr).\nTasting Protocol: Panelists were presented with two numbered samples and asked to note the sweet quality differences between the two samples. Panelists commented on sweetness onset, sweetness linger, overall sugar-like sweetness, and other qualities, such as bitter taste, metallic note, astringency, cooling sensation, any off-notes, and any associated flavors. […]"}, "human sense of taste": {"tested_on": "human sense of taste", "test": "Sweetness recognition threshold comparison with 1.5% sucrose", "assay_type": "in vivo", "details": "rebaudioside J 40 ppm", "text": "The term “sweetness recognition threshold concentration,” as generally used herein, is the lowest known concentration of a given sweetener or combination of sweeteners recognized as sweet by the human sense of taste, typically about 1.5% sucrose equivalence."}, "[2]": {"tested_on": "trained sensory panelists", "test": "Adaptation, sweetness and bitterness over time (Example 4B)", "assay_type": "in vivo, human", "procedure": "Three evaluations (replicates) were obtained from each panelist for each evaluation, and a total of 30 judgments were obtained for each sample. The samples were evaluated for sweetness and bitterness. Samples were presented blind and coded with random three-digit numbers.\nEach panelists took a sip, swirled the sample in his or her mouth for 10 seconds, expectorated and subsequently rated sweetness intensity and bitterness intensity using a 15-point line scale. Panelists repeated this procedure every 30 seconds for 3 minutes. After rinsing 6 times with water, the panelists were given a new sample and that sample was evaluated using the procedure described above"}, "[3]": {"tested_on": "trained sensory panelists", "test": "Targeted descriptive analysis (Example 4C)", "assay_type": "in vivo, human", "details": "vs rebaudioside A", "procedure": "Panelists participated in an orientation session to familiarize themselves with sample set. They reviewed aroma, taste, flavor, and texture to determine the attributes most important for describing and differentiating the samples. These attributes were used to develop the ballot for the test evaluations. Three evaluations (replicates) were obtained from each panelist for each evaluation, and a total of 30 judgments were obtained for each sample. 45 mL of each sample was served in a sequential monadic presentation. The serving order was balanced for each panelist. For each test sample, the panelists indicated the intensity of each sensory attribute (labeled with a 3-digit number) on a 15-point line scale."}, "[4]": {"details": "rated every 30 seconds for 3 minutes, 15-point line scale"}},
  "note": "Where a SMILES comes first, the peptide text is derived from it.",
  "data": [
    {"smiles": "CC1=CC(=O)NS(=O)(=O)O1", "note": "[Acesulfame potassium]", "values": [
      {"measurement": "Panelist reporting Rebaudioside J increased sweetness (%)", "setting": "sensory panelists", "result": 85, "unit": "%"},
      {"measurement": "d' Score", "setting": "sensory panelists", "result": 2.30}
    ]},
    {"smiles": "COC(=O)[C@H](Cc1ccccc1)NC(=O)[C@@H](N)CC(=O)O", "note": "[Aspartame, aspartame] (H-Asp-Phe-OMe)", "values": [
      {"measurement": "Panelist reporting Rebaudioside J increased sweetness (%)", "setting": "sensory panelists", "result": 86, "unit": "%"},
      {"measurement": "d' Score", "setting": "sensory panelists", "result": 2.13}
    ]},
    {"smiles": "C=C1C[C@@]23CC[C@H]4[C@@](C)(CCC[C@@]4(C)C(=O)O[C@@H]4O[C@H](CO)[C@@H](O)[C@H](O)[C@H]4O[C@@H]4O[C@@H](C)[C@H](O)[C@@H](O)[C@H]4O)[C@@H]2CC[C@]1(O[C@@H]1O[C@H](CO)[C@@H](O)[C@H](O[C@@H]2O[C@H](CO)[C@@H](O)[C@H](O)[C@H]2O)[C@H]1O[C@@H]1O[C@H](CO)[C@@H](O)[C@H](O)[C@H]1O)C3", "note": "[Rebaudioside J, rebaudioside J]", "values": [
      {"measurement": "bitterness intensity (FIG. 4)", "setting": "[1]", "result": "low and only increased slightly with increasing concentration"},
      {"measurement": "sweetness intensity (FIG. 4)", "setting": "[1]", "result": "increases with increasing concentration"},
      {"measurement": "panelists' notes on taste characteristics", "setting": "panelists", "result": "lack of bitterness, sugar-like, syrupy and round characteristics"},
      {"measurement": "sweetness score on scale of 1-10 (FIG. 3)", "setting": "panelists; rebaudioside A 400 ppm assigned 5, sucrose 6.5% assigned 10, noseclips, blinded", "result": 6.7},
      {"measurement": "sweetness compared with 1.5% sucrose (sweetness recognition threshold)", "setting": "human sense of taste", "result": "less sweet than 1.5% sucrose"},
      {"measurement": "bitterness intensity over time (FIG. 5)", "setting": "[2]; [4]", "result": "remains low"},
      {"measurement": "sweetness intensity over time (FIG. 5)", "setting": "[2]; [4]", "result": "decreases over time"},
      {"measurement": "bitterness over time compared with rebaudioside A (FIG. 7)", "setting": "[2]; vs rebaudioside A", "result": "less bitter than rebaudioside A"},
      {"measurement": "bitterness compared with rebaudioside A (FIG. 6)", "setting": "[3]; 15-point line scale", "result": "less bitter"},
      {"measurement": "chemical/artificial taste compared with rebaudioside A (FIG. 6)", "setting": "[3]; 15-point line scale", "result": "less chemical/artificial taste than rebaudioside A"},
      {"measurement": "overall impression compared with rebaudioside A (FIG. 8)", "setting": "[3]", "result": "scored higher in overall impression than rebaudioside A"}
    ]},
    {"smiles": "OC[C@H]1O[C@H](O[C@]2(CCl)O[C@H](CCl)[C@@H](O)[C@@H]2O)[C@H](O)[C@@H](O)[C@H]1Cl", "note": "[Sucralose, sucralose]", "values": [
      {"measurement": "Panelist reporting Rebaudioside J increased sweetness (%)", "setting": "sensory panelists", "result": 89, "unit": "%"},
      {"measurement": "d' Score", "setting": "sensory panelists", "result": 2.44}
    ]},
    {"smiles": "OC[C@H]1O[C@@](CO)(O[C@H]2O[C@H](CO)[C@@H](O)[C@H](O)[C@H]2O)[C@@H](O)[C@@H]1O", "note": "[Sucrose, sucrose]", "values": [
      {"measurement": "Panelist reporting Rebaudioside J increased sweetness (%)", "setting": "sensory panelists", "result": 85, "unit": "%"},
      {"measurement": "d' Score", "setting": "sensory panelists", "result": 2.00}
    ]}
  ]
}
